Experiments:
in vitro [1] = assay: in vitro
Method: (§1) Method: Test Compound A was evaluated at a concentration of 1 μM for apparent metabolic stability by the in vitro t1/2 method described by Obach et al. See Obach R S, Baxter J G, Liston T E, Silber B M, Jones B C, MacIntyre F, et al. The prediction of human pharmacokinetic parameters from preclinical and in vitro metabolism data. JPET 1997; 283:46-58.

CYP2D6 = CYP2D6 (Homo sapiens, UniProt P10635); assay: in vitro
Method: Method: This study was conducted according to the procedure established by Bertelsen et al for paroxetine. See Bertelsen K M, Venkatakrishnan K, von Moltke L L, Obach S, Greenblatt, D J. Apparent mechanism-based inhibition of human CYP2D6 in vitro by paroxetine: comparison with fluoxetine and quinidine. Drug Met Disp 2003; 31:289-293. Briefly, the test articles were pre-incubated with human liver microsomes for various times followed by the addition of dextromethorphan, a CYP2D6 substrate. The formation of dextrorphan, a CYP2D6-specific metabolite of dextromethorphan, was monitored as a measure of CYP2D6 activity.

in vitro [2] = assay: in vitro; remark: listed apart in the source
Method: as §1

[3] = target: human cDNA-expressed CYP2D6 (Homo sapiens, UniProt P10635); assay: Drug-drug interaction potential with tamoxifen: formation of endoxifen from N-desmethyl TAM after pre-incubation with CYP2D6
Sequence of human cDNA-expressed CYP2D6 (P10635 whole entry): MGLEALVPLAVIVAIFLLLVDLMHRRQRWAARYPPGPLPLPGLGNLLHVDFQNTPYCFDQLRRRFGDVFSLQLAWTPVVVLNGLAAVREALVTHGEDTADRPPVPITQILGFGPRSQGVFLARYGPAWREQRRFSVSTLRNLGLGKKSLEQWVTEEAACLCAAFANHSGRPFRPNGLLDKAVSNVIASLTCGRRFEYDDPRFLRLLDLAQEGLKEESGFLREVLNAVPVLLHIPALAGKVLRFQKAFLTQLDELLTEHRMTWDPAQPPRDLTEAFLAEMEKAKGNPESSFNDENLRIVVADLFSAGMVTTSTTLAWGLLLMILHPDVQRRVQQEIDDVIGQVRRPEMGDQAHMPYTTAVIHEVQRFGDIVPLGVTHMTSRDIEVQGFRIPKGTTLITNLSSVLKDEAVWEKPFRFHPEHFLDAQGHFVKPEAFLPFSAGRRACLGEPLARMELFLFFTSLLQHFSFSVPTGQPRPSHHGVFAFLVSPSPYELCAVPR
Source text: Objective: The objective of this study was to determine the potential for the deuterated paroxetine, (3S,4R)-3-((2,2-d2-benzo[d][1,3]dioxol-5-yloxy)methyl)-4-(4-fluorophenyl)piperidine, HCl salt-hemihydrate, to inhibit the formation of endoxifen using human cDNA-expressed CYP2D6 as compared with paroxetine. The deuterated paroxetine, (3S,4R)-3-((2,2-d2-benzo[d][1,3]dioxol-5-yloxy)methyl)-4-(4-fluorophenyl)piperidine, HCl salt-hemihydrate, will be referred to as “Test Compound A” in the following examples and the figures.
Method: Test Compound A was pre-incubated for 20 min at various concentrations with human cDNA-expressed CYP2D6 (500 pmol/mL) in the presence of NADPH, after which aliquots of the reaction mixture were diluted 1:10 in buffer containing NADPH. N-desmethyl TAM (50 μM) was then added to the diluted pre-incubation mixtures. After 45 min of incubation, endoxifen concentrations were determined by LC-MS/MS.

[4] = for vasomotor symptoms (VMS); expected

Sequence of CYP2D6 (P10635 whole entry): as above

Compound | half-life at 1 μM (in vitro [1]; human, microsomes) [min] | KI (inactivation) (CYP2D6; human, microsomes) [µM] | kinact (CYP2D6; human, microsomes) [s⁻¹] | inhibition of CYP2D6, expressed as the percentage of dextrorphan formation relative to control (CYP2D6; microsomes) | half-life at 1 μM (in vitro [2]; rat, microsomes) [min] | t1/2 (in vitro [1]; Human liver microsomes 0.5 mg/mL, 1 μM) [min] | mean relative amount remaining at the end of 30 minutes incubation (in vitro [1]; human hepatic microsomes 0.5 mg/mL, 1 μM, n=4) [%] | t1/2 less than the corresponding value for paroxetine (in vitro [1]; human liver microsomes) [%] | CYP2D6 activity (percentage of dextrorphan formation relative to control) (CYP2D6; 0-10 μM concentration range) | inhibition of CYP2D6 (CYP2D6; as the concentration approached 25 μM) | mechanism-based inactivation of CYP2D6 (CYP2D6; at concentrations up to 10 μM) | kINACT for CYP2D6 inactivation (CYP2D6; human liver microsomes) | endoxifen produced in the presence of Test Compound A relative to in the presence of paroxetine ([3]; highest concentration (25 μM)) [fold] | change in the formation of endoxifen from N-desmethyl tamoxifen ([3]; over the range of concentrations tested (0-25 μM), 20 min pre-incubation with NADPH, N-desmethyl TAM 50 μM, 45 min) | t1/2 (in vitro [2]; Rat liver microsomes 0.5 mg/mL, 1 μM) [min] | mean relative amount remaining at the end of 30 minutes incubation (in vitro [2]; rat hepatic microsomes 0.5 mg/mL, 1 μM, n=4) [%] | t1/2 less than the corresponding value for paroxetine (in vitro [2]; rat liver microsomes) | maximum plasma concentration in humans [4] [nM]
Fc1ccc([C@@H]2CCNC[C@H]2COc2ccc3c(c2)OCO3)cc1 [Paroxetine, paroxetine, reference compound] | 49 ± 7.8 | 1.96 | 0.00133 | concentration- and time-dependent inhibition | 20.4 ± 2.1 |  |  |  |  |  |  |  |  |  |  |  |  | 
Cl.Cl.O.[2H]C1([2H])Oc2ccc(OC[C@@H]3CNCC[C@H]3c3ccc(F)cc3)cc2O1.[2H]C1([2H])Oc2ccc(OC[C@@H]3CNCC[C@H]3c3ccc(F)cc3)cc2O1 [Test Compound A, (3S,4R)-3-((2,2-d2-benzo[d][1,3]dioxol-5-yloxy)methyl)-4-(4-fluorophenyl)piperidine, HCl salt-hemihydrate] |  |  |  |  |  | 20.9 ± 2.0 | 37.2±3.9 | ~57 | remained similar to that of control | Some inhibition | does not exhibit mechanism-based inactivation | could not be calculated | 12 | little to no change | 15.5 ± 1.6 | 25.5±4.3 | approximately 24% | ≤ 30

— US9315483B2, “Synthesis of deuterated catechols and benzo[D][1,3]dioxoles and derivatives thereof” (Concert Pharmaceuticals, Inc., priority 2007, dated 2016)
